Reference: patent EP4806898A1, “HETEROARYL DERIVATIVE COMPOUND AND USE THEREOF” (Voronoi Inc., priority 2023, dated 2025)

Experiments:
[1] = target: T1, recombinant USP1 protein (Homo sapiens, UniProt O94782, DEL125-138/DEL229-408/DEL608-737); assay: Binding affinity to recombinant USP1 protein by differential scanning fluorimetry; conditions: compound 100 µM; 0.03 mg/mL USP1 (Δ1-66, Δ125-138, Δ229-408, Δ608-737); Tm with compound minus Tm with DMSO; read-out: ΔTm (°C)
T1 sequence (O94782 with tags, fused parts or gaps DEL125-138/DEL229-408/DEL608-737): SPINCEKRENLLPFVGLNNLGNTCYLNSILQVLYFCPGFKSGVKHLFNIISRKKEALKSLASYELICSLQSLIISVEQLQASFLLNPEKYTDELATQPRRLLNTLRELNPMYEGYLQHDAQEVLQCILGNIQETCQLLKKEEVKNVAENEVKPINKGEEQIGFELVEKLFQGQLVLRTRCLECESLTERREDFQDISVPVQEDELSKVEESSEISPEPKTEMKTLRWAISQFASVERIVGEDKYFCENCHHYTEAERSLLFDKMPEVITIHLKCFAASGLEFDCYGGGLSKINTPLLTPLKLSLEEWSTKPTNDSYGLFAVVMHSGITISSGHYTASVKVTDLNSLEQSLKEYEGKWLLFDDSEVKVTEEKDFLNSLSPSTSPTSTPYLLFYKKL
Summary of the method: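 USP1 (Δ1-66, Δ125-138, Δ229-408, Δ608-737) at 0.03 mg/mL with dye in 50 mM Tris-HCl pH 8.0, 150 mM NaCl, 2% glycerol, 1 mM DTT; compounds at 100 µM final. Tm read on real-time PCR instrument; ΔTm = Tm with compound minus Tm with DMSO.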

[2] = system: UWB1.289 cells; assay: Cell proliferation inhibitory activity in BRCA1/2-mutant or HRD-positive cells (Cell Titer-Glo); type: cell-based; conditions: UWB1289; UWB1.289 cells, 144 hours after compound treatment, Cell Titer-Glo, 1.5 nM to 10 µM; read-out: GI50 UWB1.289 BRCA1 mut
Summary of the method: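 UWB1.289 cells (1,000/well) in 50% MEBM/50% RPMI1640 exposed to […], final 1.5 nM to 10 µM, for 144 h at 37 °C. Viable cells measured by CellTiter-Glo luminescence; GI50 calculated.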

SMILES | ΔTm at 100 µM [1] | GI50 [2]
COc1ncnc(C2CC2)c1-c1ncc2cc(C(=O)N[C@H]3CCN(C)[C@H](C)C3)n(Cc3ccc(-c4nc(C(F)(F)F)cn4C)cc3)c2n1 [Example 201, 2-(4-cyclopropyl-6-methoxypyrimidin-5-yl)-N-((2R,4S)-1,2-dimethylpiperidin-4-yl)-7-(4-(1-methyl-4-(trifluoromethyl)-1H-imidazol-2-yl)benzyl)-7H-pyrrolo[2,3-d]pyrimidine-6-carboxamide] | > 5 °C | < 100 nM
COc1ncnc(C2CC2)c1-c1ncc2cc(C(=O)N[C@H]3CCN(C)CC3(F)F)n(Cc3ccc(-c4nc(C(F)(F)F)cn4C)cc3)c2n1 [Example 202, (S)-2-(4-cyclopropyl-6-methoxypyrimidin-5-yl)-N-(3,3-difluoro-1-methylpiperidin-4-yl)-7-(4-(1-methyl-4-(trifluoromethyl)-1H-imidazol-2-yl)benzyl)-7H-pyrrolo[2,3-d]pyrimidine-6-carboxamide] | > 5 °C | < 100 nM
CNC1CN(C(=O)c2cc3cnc(-c4c(OC)ncnc4C4CC4)nc3n2Cc2ccc(-c3nc(C(F)(F)F)cn3C)cc2)C1 [Example 203, (2-(4-cyclopropyl-6-methoxypyrimid in-5-yl)-7-(4-(1-methyl-4-(trifluoromethyl)-1H-imidazol-2-yl)benzyl)-7H-pyrrolo[2,3-d]pyrimidin-6-yl) (3-(methylamino)azetidin-1-yl)methanone] | > 5 °C | < 100 nM
COc1ncnc(C2CC2)c1-c1ncc2cc(C(=O)N(C)C)n(Cc3ccc(-c4nc(C(F)(F)F)cn4C)cc3)c2n1 [Example 204, 2-(4-cyclopropyl-6-methoxypyrimidin-5-yl)-N,N-dimethyl-7-(4-(1-methyl-4-(trifluoromethyl)-1H-imidazol-2-yl)benzyl)-7H-pyrrolo[2,3-d]pyrimidine-6-carboxamide] | > 5 °C | < 100 nM
COc1ncnc(C2CC2)c1-c1ncc2cc(C(=O)NCC(C)(C)O)n(Cc3ccc(-c4nc(C(F)(F)F)cn4C)cc3)c2n1 [Example 205, 2-(4-cyclopropyl-6-methoxypyrimidin-5-yl)-N-(2-hydroxy-2-methylpropyl)-7-(4-(1-methyl-4-(trifluoromethyl)-1H-imidazol-2-yl)benzyl)-7H-pyrrolo[2,3-d]pyrimidine-6-carboxamide] | > 5 °C | < 100 nM
COc1ncnc(C2CC2)c1-c1ncc2cc(C(=O)N[C@@H]3CCN(C)CC3(F)F)n(Cc3ccc(-c4nc(C(F)(F)F)cn4C)cc3)c2n1 [Example 207, (R) -2-(4-cyclopropyl-6-methoxypyrimidin-5-yl)-N-(3,3-difluoro-1-methylpiperidin-4-yl)-7-(4-(1-methyl-4-(trifluoromethyl)-1H-imidazol-2-yl)benzyl)-7H-pyrrolo[2,3-d]pyrimidine-6-carboxamide] | > 5 °C | < 100 nM
CNC(=O)c1cc2cnc(-c3c(OC)ncnc3C3CC3)nc2n1Cc1ccc(-c2nc(C(F)(F)F)c3ccccn23)cc1 [Example 208, 2-(4-cyclopropyl-6-methoxypyrimidin-5-yl)-N-methyl-7-(4-(1-(trifluoromethyl)imidazol[1,5-a]pyridin-3-yl)benzyl)-7H-pyrrolo[2,3-d]pyrimidine-6-carboxamide] | > 5 °C | < 100 nM
CNC(=O)c1cc2cnc(-c3c(OC)ncnc3C3CC3)nc2n1Cc1ccc(-c2cc(C)ccn2)cc1 [Example 209, 2-(4-cyclopropyl-6-methoxypyrimidin-5-yl)-N-methyl-7-(4-(4-methylpyridin-2-yl)benzyl)-7H-pyrrolo[2,3-d]pyrimidine-6-carboxamide] | > 5 °C | < 100 nM
COc1ncnc(C2CC2)c1-c1ncc2cc(C(=O)N(C)CSC)n(Cc3ccc(-c4nc(C(F)(F)F)cn4C)cc3)c2n1 [Example 210, 2-(4-cyclopropyl-6-methoxypyrimidin-5-yl)-N-methyl-7-(4-(1-methyl-4-(trifluoromethyl)-1H-imidazol-2-yl)benzyl)-N-((methylthio)methyl)-7H-pyrrolo[2,3-d]pyrimidine-6-carboxamide] | > 5 °C | < 100 nM
COc1ncnc(C2CC2)c1-c1ncc2cc(C(=O)N[C@H]3CN(C(C)C)C[C@H]3F)n(Cc3ccc(-c4nc(C(F)(F)F)cn4C)cc3)c2n1 [Example 211, 2-(4-cyclopropyl-6-methoxypyrimidin-5-yl)-N-((3S,4R)-4-fluoro-1-isopropylpyrrolidin-3-yl)-7-(4-(1-methyl-4-(trifluoromethyl)-1H-imidazol-2-yl)benzyl)-7H-pyrrolo[2,3-d]pyrimidine-6-carboxamide] | > 5 °C | < 100 nM
COc1ncnc(C2CC2)c1-c1ncc2cc(C(=O)N[C@H]3CN(C4COC4)C[C@H]3F)n(Cc3ccc(-c4nc(C(F)(F)F)cn4C)cc3)c2n1 [Example 212, 2-(4-cyclopropyl-6-methoxypyrimidin-5-yl)-N-((3S,4R)-4-fluoro-1-(oxetan-3-yl)pyrrolidin-3-yl)-7-(4-(1-methyl-4-(trifluoromethyl)-1H-imidazol-2-yl)benzyl)-7H-pyrrolo [2,3-d]pyrimidine-6-carboxamide] | > 5 °C | < 100 nM
CNC(=O)c1cc2cnc(-c3c(OC)ncnc3C3CC3)nc2n1Cc1ccc(-c2nc(C(F)(F)F)c(OC)n2C)cc1 [Example 214, 2-(4-cyclopropyl-6-methoxypyrimidin-5-yl)-7-(4-(5-methoxy-1-methyl-4-(trifluoromethyl)-1H-imidazol-2-yl)benzyl)-N-methyl-7H-pyrrolo[2,3-d]pyrimidine-6-carboxamide] | > 5 °C | < 100 nM
COc1ncnc(C2CC2)c1-c1ncc2cc(C(=O)N[C@H]3CN(C4CC4)C[C@H]3F)n(Cc3ccc(-c4nc(C(F)(F)F)cn4C)cc3)c2n1 [Example 215, N-((3S,4R)-1-cyclopropyl-4-fluoropyrrolidin-3-yl)-2-(4-cyclopropyl-6-methoxypyrimidin-5-yl)-7-(4-(1-methyl-4-(trifluoromethyl)-1H-imidazol-2-yl)benzyl)-7H-pyrrolo[2,3-d]pyrimidine-6-carboxamide] | > 5 °C | < 100 nM
COc1ncnc(C2CC2)c1-c1ncc2cc(C(=O)N[C@@H]3CCN(C4COC4)C[C@@H]3F)n(Cc3ccc(-c4nc(C(F)(F)F)cn4C)cc3)c2n1 [Example 216, 2-(4-cyclopropyl-6-methoxypyrimidin-5-yl)-N-((3S,4R)-3-fluoro-1-(oxetan-3-yl)piperidin-4-yl)-7-(4-(1-methyl-4-(trifluoromethyl)-1H-imidazol-2-yl)benzyl) -7H-pyrrolo[2,3-d]pyrimidine-6-carboxamide] | > 5 °C | 100 to 500 nM
COc1ncnc(C2CC2)c1-c1ncc2cc(C(=O)N[C@@H]3CN(C)C[C@@H]3F)n(Cc3ccc(-c4nc(C(F)(F)F)cn4C)cc3)c2n1 [Example 217, 2-(4-cyclopropyl-6-methoxypyrimidin-5-yl)-N-((3R,4S)-4-fluoro-1-methylpyrrolidin-3-yl)-7-(4-(1-methyl-4-(trifluoromethyl)-1H-imidazol-2-yl)benzyl) -7H-pyrrolo[2,3-d]pyrimidine-6-carboxamide] | > 5 °C | < 100 nM
